What follows are molecules tested against wild-type human cardiac sodium channel, hNav1.5 (Homo sapiens, UniProt Q14524) (assay: Late INa screening assay (QPatch whole cell patch clamp, HEK293)). Details: HEK293, percent block of late INa; compound at 1 μM; 10 μM Tefluthrin; read-out: Late INa 1 μM.
Chain of wild-type human cardiac sodium channel, hNav1.5 (Q14524 whole entry): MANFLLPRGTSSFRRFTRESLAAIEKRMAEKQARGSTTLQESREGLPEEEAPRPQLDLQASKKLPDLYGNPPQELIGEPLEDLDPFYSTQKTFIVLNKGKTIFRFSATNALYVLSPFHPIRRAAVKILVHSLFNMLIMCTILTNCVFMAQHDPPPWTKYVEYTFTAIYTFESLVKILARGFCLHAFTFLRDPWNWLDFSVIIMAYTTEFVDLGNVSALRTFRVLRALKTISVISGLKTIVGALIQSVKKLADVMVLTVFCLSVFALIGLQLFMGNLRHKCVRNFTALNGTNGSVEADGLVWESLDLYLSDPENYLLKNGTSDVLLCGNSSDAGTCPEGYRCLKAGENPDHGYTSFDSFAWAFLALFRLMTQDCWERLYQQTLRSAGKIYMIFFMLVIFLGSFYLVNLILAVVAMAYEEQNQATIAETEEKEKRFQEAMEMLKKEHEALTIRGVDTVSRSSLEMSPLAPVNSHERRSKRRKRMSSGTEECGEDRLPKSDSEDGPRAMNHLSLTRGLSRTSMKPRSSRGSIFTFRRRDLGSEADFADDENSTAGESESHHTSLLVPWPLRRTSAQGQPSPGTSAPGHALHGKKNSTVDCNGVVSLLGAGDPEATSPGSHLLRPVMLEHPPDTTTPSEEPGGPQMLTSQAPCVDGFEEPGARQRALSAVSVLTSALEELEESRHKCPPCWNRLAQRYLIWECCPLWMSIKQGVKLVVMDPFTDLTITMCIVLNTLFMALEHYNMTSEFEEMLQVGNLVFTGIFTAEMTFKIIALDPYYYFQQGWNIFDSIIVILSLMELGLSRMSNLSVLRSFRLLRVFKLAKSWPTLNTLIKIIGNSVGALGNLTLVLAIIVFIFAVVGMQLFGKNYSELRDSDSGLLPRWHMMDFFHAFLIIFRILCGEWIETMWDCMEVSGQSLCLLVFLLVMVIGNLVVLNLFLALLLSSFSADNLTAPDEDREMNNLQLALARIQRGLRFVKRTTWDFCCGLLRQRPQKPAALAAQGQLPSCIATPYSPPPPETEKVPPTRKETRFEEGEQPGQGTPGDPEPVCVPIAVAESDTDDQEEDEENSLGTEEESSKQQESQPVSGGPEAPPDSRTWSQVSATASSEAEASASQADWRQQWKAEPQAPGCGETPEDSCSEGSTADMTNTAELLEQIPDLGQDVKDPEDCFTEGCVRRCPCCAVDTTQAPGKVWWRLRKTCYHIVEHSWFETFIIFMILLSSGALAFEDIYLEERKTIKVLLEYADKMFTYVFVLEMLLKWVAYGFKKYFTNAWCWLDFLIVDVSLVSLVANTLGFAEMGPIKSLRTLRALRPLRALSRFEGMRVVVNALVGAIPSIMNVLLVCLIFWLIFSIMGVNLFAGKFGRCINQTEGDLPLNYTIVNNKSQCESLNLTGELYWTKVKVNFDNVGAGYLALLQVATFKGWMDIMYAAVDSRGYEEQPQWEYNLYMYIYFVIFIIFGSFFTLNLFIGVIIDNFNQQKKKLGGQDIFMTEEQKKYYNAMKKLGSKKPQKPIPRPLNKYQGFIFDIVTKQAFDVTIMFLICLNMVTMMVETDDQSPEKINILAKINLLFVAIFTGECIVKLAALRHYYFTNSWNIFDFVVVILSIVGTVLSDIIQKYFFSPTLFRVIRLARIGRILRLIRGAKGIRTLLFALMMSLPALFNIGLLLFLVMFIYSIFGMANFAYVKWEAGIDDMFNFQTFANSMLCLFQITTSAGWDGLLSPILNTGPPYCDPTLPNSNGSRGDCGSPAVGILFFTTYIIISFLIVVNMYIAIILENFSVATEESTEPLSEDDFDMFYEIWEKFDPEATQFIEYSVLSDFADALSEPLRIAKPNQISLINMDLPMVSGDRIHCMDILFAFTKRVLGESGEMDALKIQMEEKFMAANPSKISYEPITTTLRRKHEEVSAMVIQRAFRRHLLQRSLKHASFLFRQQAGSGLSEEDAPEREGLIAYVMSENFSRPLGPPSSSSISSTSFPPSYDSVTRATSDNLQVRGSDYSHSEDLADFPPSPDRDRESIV
Assay type: cell-based
Summary of the method: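 HEK293 stably expressing hNav1.5 without beta subunits, recorded at 23-25° C. Late current was induced by 10 μM tefluthrin. Cells were depolarized from −120 mV to −20 mV for 250 ms at 0.1 Hz. Compounds were tested at 1 μM in extracellular solution, with baseline taken in 0Na-ECF; output is percent block of late INa.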
Work on `O=C(c1ncc[nH]1)N1CCOc2ccc(-c3ccc(C(F)(F)F)cc3)cc2C1` [III-33, (1H-imidazol-2-yl)(7-(4-(trifluoromethyl)phenyl)-2,3-dihydrobenzo[f][1,4]oxazepin-4(5H)-yl)methanone] yielded an inhibition at 1 µM of 37%.
For `Cn1ccnc1C(=O)N1CCOc2ccc(-c3ccc(C(F)(F)F)cc3)cc2C1` [III-37, (1-methyl-1H-imidazol-2-yl)(7-(4-(trifluoromethyl)phenyl)-2,3-dihydrobenzo[f][1,4]oxazepin-4(5H)-yl)methanone], the inhibition at 1 µM was 41%.
Work on `C[C@@H]1CN(C(=O)c2ncccn2)Cc2cc(-c3ccc(OC(F)(F)F)cc3)ccc2O1` [III-38, (R)-(2-methyl-7-(4-(trifluoromethoxy)phenyl)-2,3-dihydrobenzo[f][1,4]oxazepin-4(5H)-yl)(pyrimidin-2-yl)methanone] yielded an inhibition at 1 µM of 28%.
With `CC(C)(C)OC(=O)N1CCn2cc(C(=O)N3CCOc4ccc(-c5ccc(C(F)(F)F)cc5)cc4C3)nc2C1` [III-40, tert-butyl 2-(7-(4-(trifluoromethyl)phenyl)-2,3,4,5-tetrahydrobenzo[f][1,4]oxazepine-4-carbonyl)-5,6-dihydroimidazo[1,2-a]pyrazine-7(8H)-carboxylate] the inhibition at 1 µM was 22%.
For `O=C(c1nc[nH]n1)N1CCOc2ccc(-c3ccc(C(F)(F)F)cc3)cc2C1` [III-50, (1H-1,2,4-triazol-3-yl)(7-(4-(trifluoromethyl)phenyl)-2,3-dihydrobenzo[f][1,4]oxazepin-4(5H)-yl)methanone], the inhibition at 1 µM was 24%.
`Cc1cc(C(=O)N2CCOc3ccc(-c4ccc(OC(F)(F)F)cc4)cc3C2)nn1C` [III-58, (1,5-dimethyl-1H-pyrazol-3-yl)(7-(4-(trifluoromethoxy)phenyl)-2,3-dihydrobenzo[f][1,4]oxazepin-4(5H)-yl)methanone] showed an inhibition at 1 µM of 26%.
In the case of `O=C1c2ccc(-c3cccc(C(F)(F)F)c3)cc2OCCN1Cc1ncccn1` [IV-4, 4-(pyrimidin-2-ylmethyl)-8-(3-(trifluoromethyl)phenyl)-3,4-dihydrobenzo[f][1,4]oxazepin-5(2H)-one], the inhibition at 1 µM is reported as 14%.
`O=S1(=O)c2cc(-c3ccc(C(F)(F)F)cc3)ccc2OCCN1Cc1ncccn1` [IX-2, 2-((pyrimidin-2-yl)methyl)-8-(4-(trifluoromethyl)phenyl)-3,4-dihydro-2H-benzo[b][1,4,5]oxathiazepin-sulfone] was tested, and the inhibition at 1 µM was 22%.
Work on `CC(C)(C)Oc1cc(-c2ccc3c(c2)C(=O)N(Cc2ccccn2)CCO3)ccn1` [VI-4, 7-(2-tert-butoxypyridin-4-yl)-4-(pyridin-2-ylmethyl)-3,4-dihydrobenzo[f][1,4]oxazepin-5(2H)-one] yielded an inhibition at 1 µM of 36%.
`O=C1c2cc(-c3cnc(N4CCCCC4)nc3)ccc2OCCN1Cc1ncccn1` [VI-11, 7-(2-(piperidin-1-yl)pyrimidin-5-yl)-4-(pyrimidin-2-ylmethyl)-3,4-dihydrobenzo[f][1,4]oxazepin-5(2H)-one] gave an inhibition at 1 µM of 19%.
For `O=C1c2cc(-c3ccc(C(F)(F)F)cn3)ccc2OCCN1Cc1ccccn1` [VI-26, 4-(pyridin-2-ylmethyl)-7-(5-(trifluoromethyl)pyridin-2-yl)-3,4-dihydrobenzo[f][1,4]oxazepin-5(2H)-one], the inhibition at 1 µM was 28%.
`CC(C)c1nc(-c2ccc3c(c2)C(=O)N(Cc2ccccn2)CCO3)cs1` [VI-30, 7-(2-isopropylthiazol-4-yl)-4-(pyridin-2-ylmethyl)-3,4-dihydrobenzo[f][1,4]oxazepin-5(2H)-one] showed an inhibition at 1 µM of 40%.
With `O=C1c2cc(-c3ccc(C4CC4)s3)ccc2OCCN1Cc1ncccn1` [VI-36, 7-(5-cyclopropylthiophen-2-yl)-4-(pyrimidin-2-ylmethyl)-3,4-dihydrobenzo[f][1,4]oxazepin-5(2H)-one] the inhibition at 1 µM was 47%.
Molecule `O=C1c2cc(-c3ccc(C(F)(F)F)s3)ccc2OCCN1Cc1ncccn1` [VI-37, 4-(pyrimidin-2-ylmethyl)-7-(5-(trifluoromethyl)thiophen-2-yl)-3,4-dihydrobenzo[f][1,4]oxazepin-5(2H)-one] has an inhibition at 1 µM of 48%.
In the case of `O=C1c2cc(C#Cc3ccccc3)ccc2OCCN1Cc1ncccn1` [VIII-5, 7-(phenylethynyl)-4-(pyrimidin-2-ylmethyl)-3,4-dihydrobenzo[f][1,4]oxazepin-5(2H)-one], the inhibition at 1 µM is reported as 32%.
Molecule `O=C1c2cc(CCc3ccc(C(F)(F)F)cc3)ccc2OCCN1Cc1ccccn1` [VIII-7, 4-(pyridin-2-ylmethyl)-7-(4-(trifluoromethyl)phenethyl)-3,4-dihydrobenzo[f][1,4]oxazepin-5(2H)-one] has an inhibition at 1 µM of 59%.
Molecule `O=C1c2cc(CCc3ccc(C(F)(F)F)cc3)ccc2OCCN1Cc1ncccn1` [VIII-8, 4-(pyrimidin-2-ylmethyl)-7-(4-(trifluoromethyl)phenethyl)-3,4-dihydrobenzo[f][1,4]oxazepin-5(2H)-one] has an inhibition at 1 µM of 47%.
`O=C1c2cc(CCc3ccc(C(F)(F)F)cc3)ccc2OCCN1Cc1ncccc1F` [VIII-9, 4-((3-fluoropyridin-2-yl)methyl)-7-(4-(trifluoromethyl)phenethyl)-3,4-dihydrobenzo[f][1,4]oxazepin-5(2H)-one] gave an inhibition at 1 µM of 50%.
In the case of `O=C1c2cc(/C=C/c3ccc(C(F)(F)F)cc3)ccc2OCCN1Cc1ccccc1` [VIII-10, (E)-4-benzyl-7-(4-(trifluoromethyl)styryl)-3,4-dihydrobenzo[f][1,4]oxazepin-5(2H)-one], the inhibition at 1 µM is reported as 25%.
`O=C1c2cc(CCc3ccc(C(F)(F)F)cc3)ccc2OCCN1Cc1ccccc1` [VIII-11, 4-benzyl-7-(4-(trifluoromethyl)phenethyl)-3,4-dihydrobenzo[f][1,4]oxazepin-5(2H)-one] gave an inhibition at 1 µM of 42%.
In the case of `O=C1c2cc(-c3ccc(OC(F)(F)F)cc3)ncc2OCCN1Cc1ncccn1` [XII-5, 4-(pyrimidin-2-ylmethyl)-7-(4-(trifluoromethoxy)phenyl)-3,4-dihydropyrido[4,3-f][1,4]oxazepin-5(2H)-one], the inhibition at 1 µM is reported as 25%.
Work on `O=C1c2cc(-c3ccc(OC(F)(F)F)cc3)ncc2OCCN1CC1CC1` [XII-9, 4-(cyclopropylmethyl)-7-(4-(trifluoromethoxy)phenyl)-3,4-dihydropyrido[4,3-f][1,4]oxazepin-5(2H)-one] yielded an inhibition at 1 µM of 22%.
Molecule `COc1ccnc(CN2CCOc3cnc(-c4ccc(OC(F)(F)F)cc4)cc3C2=O)n1` [XII-14, 4-((4-methoxypyrimidin-2-yl)methyl)-7-(4-(trifluoromethoxy)phenyl)-3,4-dihydropyrido[4,3-f][1,4]oxazepin-5(2H)-one] has an inhibition at 1 µM of 26%.
`O=C1c2cc(Nc3ccc(OC(F)(F)F)cc3)ccc2OCCN1Cc1ncccn1` [XIII-1, 4-(pyrimidin-2-ylmethyl)-7-(4-(trifluoromethoxy)phenylamino)-3,4-dihydrobenzo[f][1,4]oxazepin-5(2H)-one] gave an inhibition at 1 µM of 16%.
With `O=C1c2cc(Oc3ccc(OC(F)(F)F)cc3)ccc2OCCN1Cc1ncccn1` [XIII-2, 4-(pyrimidin-2-ylmethyl)-7-(4-(trifluoromethoxy)phenoxy)-3,4-dihydrobenzo[f][1,4]oxazepin-5(2H)-one] the inhibition at 1 µM was 19%.
`O=C1c2cc(Nc3ccc(C(F)(F)F)cc3)ccc2OCCN1Cc1ncccn1` [XIII-3, 4-(pyrimidin-2-ylmethyl)-7-(4-(trifluoromethyl)phenylamino)-3,4-dihydrobenzo[f][1,4]oxazepin-5(2H)-one] showed an inhibition at 1 µM of 17%.
Molecule `CN(c1ccc(OC(F)(F)F)cc1)c1ccc2c(c1)C(=O)N(Cc1ncccn1)CCO2` [XIII-10, 7-(methyl(4-(trifluoromethoxy)phenyl)amino)-4-(pyrimidin-2-ylmethyl)-3,4-dihydrobenzo[f][1,4]oxazepin-5(2H)-one] has an inhibition at 1 µM of 22%.

Source: patent US9676760B2, “Fused heterocyclic compounds as ion channel modulators” (Gilead Sciences, Inc., priority 2011, dated 2017)
